Values of other authors as cited in patent US20260048031A1, “POLYMORPHS OF CO-CRYSTALS OF ITANAPRACED AND NICOTINAMIDE” (CereSpir Incorporated, priority 2024, published 2026).
Entries after “also recorded” stand apart in the source; their conditions may differ.

Tests used:
[1] = system: mouse models of Parkinson's Disease; conditions: manuscript submitted
[2] = system: rat traumatic brain injury model
[3] = in vivo
[4] = system: patients with mild cognitive impairment (MCI); conditions: listed as itanapraced
Juvenile Batten disease = conditions: unpublished
[5] = system: transgenic Alzheimer's mouse models; conditions: Imbimbo, 2007, 2009; Lanzillotta 2011

penetration into the brain [3]: substantial | plasma half-life [3]: long | oral bioavailability ([3]; po): good
SMILES: O=C(O)C1(c2ccc(-c3ccc(Cl)c(Cl)c3)c(F)c2)CC1 [CSP-1103, 1-(3′,4′-dichloro-2-fluoro[1,1′-biphenyl]-4-yl)-cyclopropanecarboxylic acid]
effects in mouse models of Parkinson's Disease [1]: numerous beneficial effects | effects in rat traumatic brain injury model ([2]; Lin et al., 2017): numerous beneficial effects | accumulation of hypertrophic microglia in the injured brain ([2]; rats after TBI (Li 2017)): prevented | acute lung injury ([2]; rats after TBI (Li 2017)): attenuated | neurological injury ([2]; rats after TBI (Li 2017)): attenuated | TNF-α (neuroinflammatory mediator) ([4]; CSF / brain, MCI patients): beneficial dose-related CSF differences; also recorded: dose-related statistically significant reductions | soluble CD40 ligand (neuroinflammatory mediator) ([4]; CSF / brain, MCI patients): beneficial dose-related CSF differences; also recorded: dose-related statistically significant reductions | total tau (marker of neurodegeneration) ([4]; CSF / brain, MCI patients): beneficial dose-related CSF differences; also recorded: dose-related statistically significant reductions | cognitive function throughout the duration of the trial ([4]; MCI patients): stable cognition; also recorded: stable cognitive function | safety and tolerability ([4]; Phase 1 studies and Phase 2 in MCI, treated up to two years): good safety and tolerability; also recorded: well tolerated | effects in mouse models of Juvenile Batten disease (Juvenile Batten disease): numerous beneficial effects | effects in transgenic Alzheimer's mouse models [5]: numerous beneficial effects
